Assay results: ChEMBL document CHEMBL1144584, “Identification of novel short chain 4-substituted indoles as potent alphavbeta3 antagonist using structure-based drug design” (Eur J Med Chem, 2007)
pIC50: −log10 of the molar value. Values belong to the compound of their own block, whether it stands above or below them.

Tests used:
[1] = Binding affinity to Integrin […] receptor by ELISA assay; design: species or system Homo sapiens
Integrin alpha-V/beta-5 = Integrin alpha-V/beta-5 (Homo sapiens, UniProt P06756+P18084); assay: Binding affinity to Integrin alpha-v-beta-5 receptor by ELISA assay; type: protein-complex assay
[2] = Binding affinity to Integrin alpha-2b-beta-3a receptor by ELISA assay; design: species or system Homo sapiens
Integrin alpha-V/beta-3 = Integrin alpha-V/beta-3 (Homo sapiens, UniProt P05106+P06756); assay: Binding affinity to Integrin alpha-v-beta-3 receptor by ELISA assay; type: protein-complex assay
[3] = Permeability from basolateral to apical side of human Caco-2 cell membrane; type: ADME, cell-based
[4] = Permeability from apical to basolateral side of human Caco-2 cell membrane; type: ADME, cell-based

Integrin alpha-V/beta-3, sequence (P05106 27-788 limits assumed): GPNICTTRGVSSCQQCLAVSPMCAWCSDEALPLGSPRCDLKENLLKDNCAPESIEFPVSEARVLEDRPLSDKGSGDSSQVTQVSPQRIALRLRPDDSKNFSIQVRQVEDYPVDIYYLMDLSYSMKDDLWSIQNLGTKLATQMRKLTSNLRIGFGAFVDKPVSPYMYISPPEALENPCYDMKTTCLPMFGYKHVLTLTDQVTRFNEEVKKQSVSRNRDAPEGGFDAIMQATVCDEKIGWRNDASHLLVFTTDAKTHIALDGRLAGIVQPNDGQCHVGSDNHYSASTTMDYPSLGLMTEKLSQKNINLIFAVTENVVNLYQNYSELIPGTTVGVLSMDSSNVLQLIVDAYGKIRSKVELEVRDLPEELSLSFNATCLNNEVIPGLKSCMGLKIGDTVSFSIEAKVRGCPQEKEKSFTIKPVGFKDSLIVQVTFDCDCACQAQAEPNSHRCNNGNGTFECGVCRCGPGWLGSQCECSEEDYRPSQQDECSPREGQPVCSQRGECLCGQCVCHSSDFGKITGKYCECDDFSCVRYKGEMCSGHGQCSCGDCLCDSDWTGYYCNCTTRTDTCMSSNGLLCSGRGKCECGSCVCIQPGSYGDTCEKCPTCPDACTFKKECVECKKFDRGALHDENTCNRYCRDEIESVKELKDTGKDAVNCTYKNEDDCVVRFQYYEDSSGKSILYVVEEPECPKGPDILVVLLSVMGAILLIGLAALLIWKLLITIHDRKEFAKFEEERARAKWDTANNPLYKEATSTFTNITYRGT
Integrin alpha-V/beta-3, sequence (P06756 31-889 limits assumed): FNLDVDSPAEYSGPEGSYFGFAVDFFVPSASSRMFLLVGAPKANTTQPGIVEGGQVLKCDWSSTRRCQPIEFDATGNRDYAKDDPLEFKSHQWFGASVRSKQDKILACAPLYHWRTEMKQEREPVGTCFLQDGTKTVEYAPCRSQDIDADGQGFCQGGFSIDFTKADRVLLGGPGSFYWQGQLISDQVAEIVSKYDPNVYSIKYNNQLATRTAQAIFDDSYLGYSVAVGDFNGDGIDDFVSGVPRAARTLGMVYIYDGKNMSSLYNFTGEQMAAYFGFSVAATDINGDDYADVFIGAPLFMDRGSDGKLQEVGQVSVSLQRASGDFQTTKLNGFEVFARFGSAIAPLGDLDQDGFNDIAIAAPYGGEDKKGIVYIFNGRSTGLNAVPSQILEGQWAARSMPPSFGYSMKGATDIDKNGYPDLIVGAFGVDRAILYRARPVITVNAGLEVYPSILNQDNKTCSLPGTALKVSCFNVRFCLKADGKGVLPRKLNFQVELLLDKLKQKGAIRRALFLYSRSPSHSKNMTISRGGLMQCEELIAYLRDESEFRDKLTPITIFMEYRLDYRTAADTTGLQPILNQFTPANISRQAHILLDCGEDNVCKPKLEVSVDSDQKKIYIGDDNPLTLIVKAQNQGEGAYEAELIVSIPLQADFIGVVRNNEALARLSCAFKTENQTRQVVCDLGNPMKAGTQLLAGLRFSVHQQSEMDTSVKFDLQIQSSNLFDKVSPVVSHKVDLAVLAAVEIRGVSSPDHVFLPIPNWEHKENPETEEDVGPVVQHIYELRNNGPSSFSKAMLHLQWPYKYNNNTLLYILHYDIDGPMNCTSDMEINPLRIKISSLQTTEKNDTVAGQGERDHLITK
Integrin alpha-V/beta-3, sequence (P06756 891-1048 limits assumed): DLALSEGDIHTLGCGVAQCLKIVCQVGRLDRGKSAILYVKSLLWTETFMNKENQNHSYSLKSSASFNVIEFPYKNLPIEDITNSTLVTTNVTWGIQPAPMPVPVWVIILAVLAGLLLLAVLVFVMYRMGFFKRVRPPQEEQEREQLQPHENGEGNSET
Integrin alpha-V/beta-5, sequence (P06756 31-889 limits assumed): as the sequence (P06756 31-889 limits assumed) above
Integrin alpha-V/beta-5, sequence (P06756 891-1048 limits assumed): as the sequence (P06756 891-1048 limits assumed) above
Integrin alpha-V/beta-5, sequence (P18084 24-799 limits assumed): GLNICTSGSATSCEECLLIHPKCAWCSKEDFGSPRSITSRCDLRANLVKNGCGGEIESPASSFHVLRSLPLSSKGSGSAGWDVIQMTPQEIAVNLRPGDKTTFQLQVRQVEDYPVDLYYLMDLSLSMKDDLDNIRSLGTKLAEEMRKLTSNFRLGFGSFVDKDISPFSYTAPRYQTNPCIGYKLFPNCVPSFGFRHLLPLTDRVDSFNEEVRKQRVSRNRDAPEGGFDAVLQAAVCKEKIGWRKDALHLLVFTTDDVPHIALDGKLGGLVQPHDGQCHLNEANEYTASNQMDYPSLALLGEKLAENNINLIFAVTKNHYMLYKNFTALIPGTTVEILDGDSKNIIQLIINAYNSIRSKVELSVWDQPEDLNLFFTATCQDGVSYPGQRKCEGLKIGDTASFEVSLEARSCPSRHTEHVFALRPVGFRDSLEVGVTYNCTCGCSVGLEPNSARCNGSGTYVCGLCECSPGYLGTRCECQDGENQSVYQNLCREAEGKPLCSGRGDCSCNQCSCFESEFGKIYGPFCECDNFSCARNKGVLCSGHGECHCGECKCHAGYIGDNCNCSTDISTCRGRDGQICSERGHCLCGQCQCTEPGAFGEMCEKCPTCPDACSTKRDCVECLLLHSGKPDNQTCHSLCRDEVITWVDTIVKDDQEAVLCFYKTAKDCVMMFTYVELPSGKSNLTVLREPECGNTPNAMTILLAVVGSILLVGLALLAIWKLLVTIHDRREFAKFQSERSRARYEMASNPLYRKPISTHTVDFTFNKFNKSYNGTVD

SMILES: O=C(O)CC(c1ccccc1)n1ccc2c(CCc3ccc4c(n3)NCCC4)cccc21 (centres undefined)
pIC50 [1]: 6.97
pIC50 (Integrin alpha-V/beta-5): 8.96
pIC50 [2]: < 6.00
pIC50 (Integrin alpha-V/beta-3): 9.02

SMILES: O=C(O)CC(c1cccnc1)n1ccc2c(CCc3ccc4c(n3)NCCC4)cccc21 (centres undefined)
Papp B→A [3]: 2.5 ×10⁻⁶ cm/s
pIC50 [1]: 6.60
pIC50 (Integrin alpha-V/beta-5): 9.02
pIC50 [2]: < 6.00
Papp A→B [4]: 2.2 ×10⁻⁶ cm/s
pIC50 (Integrin alpha-V/beta-3): 9.30

SMILES: O=C(O)CC(c1ccccc1)n1ccc2cc(CCCc3ccc4c(n3)NCCC4)ccc21 (centres undefined)
pIC50 [1]: 5.96
pIC50 (Integrin alpha-V/beta-5): 7.82
pIC50 [2]: < 6.00
pIC50 (Integrin alpha-V/beta-3): 7.85

SMILES: O=C(O)CC(c1cccnc1)n1ccc2c(NCc3ccc4c(n3)NCCC4)cccc21 (centres undefined)
pIC50 [1]: 5.03
pIC50 (Integrin alpha-V/beta-5): 7.96
pIC50 [2]: < 6.00
pIC50 (Integrin alpha-V/beta-3): 8.36

Now those with a higher pIC50 [1], led by results:

pIC50 [1]: 7.82
pIC50 (Integrin alpha-V/beta-5): 9.68
pIC50 [2]: < 6.00
SMILES: O=C(O)CC(c1cccnc1)n1ccc2cc(OCCc3ccc4c(n3)NCCC4)ccc21 (centres undefined)

pIC50 [1]: 7.62
pIC50 (Integrin alpha-V/beta-5): 9.30
pIC50 [2]: < 6.00
SMILES: O=C(O)CC(c1ccc2c(c1)OCO2)n1ccc2cc(OCCc3ccc4c(n3)NCCC4)ccc21 (centres undefined)

pIC50 [1]: 7.39
pIC50 (Integrin alpha-V/beta-5): 9.17
pIC50 [2]: < 6.00
SMILES: O=C(O)CC(c1ccccc1)n1ccc2cc(OCCc3ccc4c(n3)NCCC4)ccc21 (centres undefined)

pIC50 [1]: 7.85
pIC50 [2]: < 6.00
SMILES: CC(C)[C@H]1C(=O)N[C@@H](CCCNC(=N)N)C(=O)NCC(=O)N[C@@H](CC(=O)O)C(=O)N[C@H](Cc2ccccc2)C(=O)N1C [CILENGITIDE]
